Here are results for 14 molecules from US20250367166A1, “NEXT GENERATION DIPROVOCIMS THAT ACTIVATE THE INNATE AND ADAPTIVE IMMUNE RESPONSE” (The Scripps Research Institute, priority 2022, published 2025).

The target of assay [1] is TLR1/TLR2 (Mus musculus, UniProt Q9EPQ1+Q9QUN7). Description: TNF-α release from thioglycolate-elicited mouse peritoneal macrophages (ELISA). The following applies: for Emax: 4 h, read-out: Efficacy (magnitude) of response versus diprovocim-1 (100%), mouse macrophages; for EC50: read-out: EC50 (nM) (mouse): EC50 TNF-α release from mouse macrophages.
Protocol: Thioglycolate-elicited macrophages were recovered 4 days after i.p. injection of 2 mL BBL thioglycolate medium, brewer modified (4%; BD Biosciences) by peritoneal lavage with 5 mL phosphate buffered saline (PBS). […] Cells were seeded onto 96-well plates at 1×10^3 cells per well and treated with systematically varied concentrations of the candidate compounds (dissolved in DMSO, and final assay DMSO concentrations (0.5%) were kept constant in all experiments) for 4 h. Ultra-pure LPS (dissolved in H2O, Enzo Life Sciences) was assessed alongside the compounds as a positive control and DMSO treated controls. […] Mouse TNF-α in the supernatants was measured by ELISA kits according to the manufacturer's instructions (eBioscience). EC50's were calculated by Graphpad Prism. All data is mean of duplicates and SD is within ±10% of mean. Mouse cells were from wild type C57BL/6J mice.
For assay [2], the target named is TLR1/TLR2 (Homo sapiens, UniProt O60603+Q15399). Description: TNF-α release from PMA-differentiated human THP-1 cells (ELISA).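 On all read-outs here: cells exposed to graded compound concentrations for 4 h, TNF-α quantified in supernatant, LPS as positive and DMSO as negative control, values are duplicate means.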 The following applies: for Emax: THP-1, 4 h, read-out: Efficacy (magnitude) of response versus diprovocim-1 (100%), THP-1; for EC50: read-out: EC50 (nM) (THP-1): EC50 TNF-α release from human THP-1 cells. On the technique in general: ELISA stands for enzyme-linked immunosorbent assay.

Read-outs that look alike come from different tables or passages of the source.

TLR1/TLR2 (Homo sapiens, UniProt O60603+Q15399), sequence (Q15399 25-786): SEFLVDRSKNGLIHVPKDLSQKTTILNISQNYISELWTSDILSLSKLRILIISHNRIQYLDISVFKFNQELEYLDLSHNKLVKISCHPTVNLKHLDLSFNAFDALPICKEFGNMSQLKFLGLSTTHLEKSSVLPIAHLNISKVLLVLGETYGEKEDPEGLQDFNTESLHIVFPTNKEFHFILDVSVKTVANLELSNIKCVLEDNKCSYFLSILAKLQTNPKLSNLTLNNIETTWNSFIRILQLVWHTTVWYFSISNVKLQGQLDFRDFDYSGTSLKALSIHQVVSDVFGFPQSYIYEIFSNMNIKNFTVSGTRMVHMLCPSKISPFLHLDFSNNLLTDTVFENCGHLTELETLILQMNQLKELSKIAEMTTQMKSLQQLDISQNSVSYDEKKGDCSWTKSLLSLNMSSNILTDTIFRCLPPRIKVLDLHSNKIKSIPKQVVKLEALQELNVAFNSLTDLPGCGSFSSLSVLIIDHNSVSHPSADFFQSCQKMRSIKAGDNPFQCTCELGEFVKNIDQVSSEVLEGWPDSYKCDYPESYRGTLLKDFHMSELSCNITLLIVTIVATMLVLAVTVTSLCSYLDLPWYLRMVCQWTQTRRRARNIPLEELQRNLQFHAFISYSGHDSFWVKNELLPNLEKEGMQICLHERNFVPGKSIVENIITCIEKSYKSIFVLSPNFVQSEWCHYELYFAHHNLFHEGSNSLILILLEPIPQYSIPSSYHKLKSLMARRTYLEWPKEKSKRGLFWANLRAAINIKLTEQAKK
TLR1/TLR2 (Homo sapiens, UniProt O60603+Q15399), sequence (O60603 21-784): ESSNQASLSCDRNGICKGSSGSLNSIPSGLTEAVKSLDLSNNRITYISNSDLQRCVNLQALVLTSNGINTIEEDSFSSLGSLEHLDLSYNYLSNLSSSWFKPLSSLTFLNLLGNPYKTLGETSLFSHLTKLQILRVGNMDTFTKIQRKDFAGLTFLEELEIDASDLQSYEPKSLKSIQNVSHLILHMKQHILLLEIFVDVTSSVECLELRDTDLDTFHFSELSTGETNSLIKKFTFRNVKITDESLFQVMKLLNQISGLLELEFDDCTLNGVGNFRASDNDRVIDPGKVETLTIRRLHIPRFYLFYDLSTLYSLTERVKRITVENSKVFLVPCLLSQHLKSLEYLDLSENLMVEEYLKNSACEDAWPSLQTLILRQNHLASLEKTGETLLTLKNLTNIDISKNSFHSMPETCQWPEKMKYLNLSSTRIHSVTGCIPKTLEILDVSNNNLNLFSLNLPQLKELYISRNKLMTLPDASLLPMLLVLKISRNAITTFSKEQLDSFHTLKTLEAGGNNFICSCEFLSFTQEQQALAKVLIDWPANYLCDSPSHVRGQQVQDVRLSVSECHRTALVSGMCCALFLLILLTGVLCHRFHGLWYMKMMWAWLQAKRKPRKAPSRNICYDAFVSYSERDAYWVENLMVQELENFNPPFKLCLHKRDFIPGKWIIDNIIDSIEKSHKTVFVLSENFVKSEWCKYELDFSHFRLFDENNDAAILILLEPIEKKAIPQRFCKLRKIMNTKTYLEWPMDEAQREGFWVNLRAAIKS
TLR1/TLR2 (Mus musculus, UniProt Q9EPQ1+Q9QUN7), sequence (Q9EPQ1 26-795): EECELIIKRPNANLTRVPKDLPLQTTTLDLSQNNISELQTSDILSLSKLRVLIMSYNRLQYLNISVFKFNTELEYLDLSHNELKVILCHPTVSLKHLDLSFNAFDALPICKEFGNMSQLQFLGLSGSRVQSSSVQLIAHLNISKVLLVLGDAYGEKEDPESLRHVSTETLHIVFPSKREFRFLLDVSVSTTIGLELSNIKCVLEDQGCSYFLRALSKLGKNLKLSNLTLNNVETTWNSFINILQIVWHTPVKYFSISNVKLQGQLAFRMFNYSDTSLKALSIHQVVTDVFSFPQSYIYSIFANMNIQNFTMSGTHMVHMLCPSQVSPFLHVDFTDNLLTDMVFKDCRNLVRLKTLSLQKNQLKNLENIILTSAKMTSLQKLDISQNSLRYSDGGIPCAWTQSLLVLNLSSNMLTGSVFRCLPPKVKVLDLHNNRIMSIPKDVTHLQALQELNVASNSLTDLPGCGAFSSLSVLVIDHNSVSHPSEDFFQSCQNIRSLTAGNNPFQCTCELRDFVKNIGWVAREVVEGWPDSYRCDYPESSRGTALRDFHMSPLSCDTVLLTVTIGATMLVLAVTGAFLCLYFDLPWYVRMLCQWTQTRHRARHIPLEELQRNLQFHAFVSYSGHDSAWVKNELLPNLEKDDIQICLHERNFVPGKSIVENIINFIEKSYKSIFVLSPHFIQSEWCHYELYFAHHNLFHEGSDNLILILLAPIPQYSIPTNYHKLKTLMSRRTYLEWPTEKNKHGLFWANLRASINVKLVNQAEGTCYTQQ
TLR1/TLR2 (Mus musculus, UniProt Q9EPQ1+Q9QUN7), sequence (Q9QUN7 25-784): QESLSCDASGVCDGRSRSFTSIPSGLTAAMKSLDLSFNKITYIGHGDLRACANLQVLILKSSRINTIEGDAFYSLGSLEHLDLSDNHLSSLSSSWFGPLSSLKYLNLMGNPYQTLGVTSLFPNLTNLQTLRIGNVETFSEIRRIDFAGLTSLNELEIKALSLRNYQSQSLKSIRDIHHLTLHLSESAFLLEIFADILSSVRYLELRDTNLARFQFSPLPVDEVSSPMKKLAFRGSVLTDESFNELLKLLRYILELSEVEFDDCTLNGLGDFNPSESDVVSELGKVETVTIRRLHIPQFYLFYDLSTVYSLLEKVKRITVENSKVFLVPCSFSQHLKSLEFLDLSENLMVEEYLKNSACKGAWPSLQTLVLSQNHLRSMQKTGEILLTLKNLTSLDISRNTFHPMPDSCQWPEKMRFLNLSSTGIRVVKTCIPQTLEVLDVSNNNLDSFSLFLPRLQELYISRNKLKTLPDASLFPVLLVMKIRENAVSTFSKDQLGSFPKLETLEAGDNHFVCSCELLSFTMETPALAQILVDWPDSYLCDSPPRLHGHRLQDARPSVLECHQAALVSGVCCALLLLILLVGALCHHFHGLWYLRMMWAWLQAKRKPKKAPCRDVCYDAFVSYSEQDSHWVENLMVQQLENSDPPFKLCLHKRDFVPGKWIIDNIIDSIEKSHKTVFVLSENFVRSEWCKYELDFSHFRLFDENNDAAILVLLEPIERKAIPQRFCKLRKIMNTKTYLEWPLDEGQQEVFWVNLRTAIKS

What is called EC50 is the concentration at which the effect is half-maximal. As to `COC(=O)CCCCCCCCCCCNC(=O)[C@@H]1CN(C(=O)c2ccc(C(=O)N3C[C@@H](C(=O)N[C@H]4C[C@@H]4c4ccccc4)[C@H](C(=O)N[C@H]4C[C@@H]4c4ccccc4)C3)cc2)C[C@H]1C(=O)N[C@H]1C[C@@H]1c1ccccc1` [Compound 3, Methyl 12-((3S,4S)-1-(4-((3S,4S)-3,4-bis(((1S,2R)-2-phenylcyclopropyl)carbamoyl)pyrrolidine-1-carbonyl)-benzoyl)-4-(((1S,2R)-2-phenylcyclopropyl)-carbamoyl)-pyrrolidine-3-carboxamido)-dodecanoate], on TLR1/TLR2 [1], the Emax was 100%. Further, at TLR1/TLR2 [1] (Table 1), the EC50 came to 1.4 nM.

On to `COC(=O)CCCCCCCCCNC(=O)[C@@H]1CN(C(=O)c2ccc(C(=O)N3C[C@@H](C(=O)N[C@H]4C[C@@H]4c4ccccc4)[C@H](C(=O)N[C@H]4C[C@@H]4c4ccccc4)C3)cc2)C[C@H]1C(=O)N[C@H]1C[C@@H]1c1ccccc1` [Compound 4, Methyl 10-((3S,4S)-1-(4-((3S,4S)-3,4-bis(((1S,2R)-2-phenylcyclopropyl)carbamoyl)pyrrolidine-1-carbonyl)-benzoyl)-4-(((1S,2R)-2-phenylcyclopropyl)-carbamoyl)-pyrrolidine-3-carboxamido)-decanoate], for which the Emax on TLR1/TLR2 [2] is 100%.

Turning to `COC(=O)CCCCCNC(=O)[C@@H]1CN(C(=O)c2ccc(C(=O)N3C[C@@H](C(=O)N[C@H]4C[C@@H]4c4ccccc4)[C@H](C(=O)N[C@H]4C[C@@H]4c4ccccc4)C3)cc2)C[C@H]1C(=O)N[C@H]1C[C@@H]1c1ccccc1` [Compound 6, Methyl 6-((3S,4S)-1-(4-((3S,4S)-3,4-bis(((1S,2R)-2-phenylcyclopropyl)carbamoyl)pyrrolidine-1-carbonyl)-benzoyl)-4-(((1S,2R)-2-phenylcyclopropyl)carbamoyl)-pyrrolidine-3-carboxamido)-hexanoate], the EC50 at TLR1/TLR2 [2] (Table 1) came out at 45 nM; on TLR1/TLR2 [1] (Table 1), 1100 nM.

With `O=C(NCCCCCCCCCCCCO)[C@@H]1CN(C(=O)c2ccc(C(=O)N3C[C@@H](C(=O)N[C@H]4C[C@@H]4c4ccccc4)[C@H](C(=O)N[C@H]4C[C@@H]4c4ccccc4)C3)cc2)C[C@H]1C(=O)N[C@H]1C[C@@H]1c1ccccc1` [Compound 7, (3S,4S)-1-(4-((3S,4S)-3,4-Bis(((1S,2R)-2-phenyl-cyclopropyl)carbamoyl)pyrrolidine-1-carbonyl)-benzoyl)-N^3-(12-hydroxydodecyl)-N^4-((1S,2R)-2-phenyl-cyclo-propyl)pyrrolidine-3,4-dicarboxamide], the Emax at TLR1/TLR2 [2] was found to be 90%; at TLR1/TLR2 [1] it was 110%. The EC50 on TLR1/TLR2 [2] (Table 3) turned out to be 0.21 nM; on TLR1/TLR2 [1] (Table 3), 1.2 nM.

For the molecule `O=C(NCCCCCCCCCCO)[C@@H]1CN(C(=O)c2ccc(C(=O)N3C[C@@H](C(=O)N[C@H]4C[C@@H]4c4ccccc4)[C@H](C(=O)N[C@H]4C[C@@H]4c4ccccc4)C3)cc2)C[C@H]1C(=O)N[C@H]1C[C@@H]1c1ccccc1` [Compound 8, (3S,4S)-1-(4-((3S,4S)-3,4-Bis(((1S,2R)-2-phenyl-cyclopropyl)carbamoyl)pyrrolidine-1-carbonyl)benzoyl)-N^3-(10-hydroxydecyl)-N^4-((1S,2R)-2-phenylcyclopropyl)-pyrrolidine-3,4-dicarboxamide], the Emax at TLR1/TLR2 [2] came out at 90%; on TLR1/TLR2 [1] it was 110%.

For `O=C(NCCCCCCCCO)[C@@H]1CN(C(=O)c2ccc(C(=O)N3C[C@@H](C(=O)N[C@H]4C[C@@H]4c4ccccc4)[C@H](C(=O)N[C@H]4C[C@@H]4c4ccccc4)C3)cc2)C[C@H]1C(=O)N[C@H]1C[C@@H]1c1ccccc1` [Compound 9, (3S,4S)-1-(4-((3S,4S)-3,4-Bis(((1S,2R)-2-phenyl-cyclopropyl)carbamoyl)pyrrolidine-1-carbonyl)-benzoyl)-N^3—(8-hydroxyoctyl)-N^4-((1S,2R)-2-phenyl-cyclopropyl)pyrrolidine-3,4-dicarboxamide], the results for the EC50 on TLR1/TLR2 [2] (Table 1) and on TLR1/TLR2 [1] (Table 1) were 4.3 nM and 93 nM, respectively.

As for `O=C(NCCCCCCO)[C@@H]1CN(C(=O)c2ccc(C(=O)N3C[C@@H](C(=O)N[C@H]4C[C@@H]4c4ccccc4)[C@H](C(=O)N[C@H]4C[C@@H]4c4ccccc4)C3)cc2)C[C@H]1C(=O)N[C@H]1C[C@@H]1c1ccccc1` [Compound 10, (3S,4S)-1-(4-((3S,4S)-3,4-Bis(((1S,2R)-2-phenyl-cyclo-propyl)carbamoyl)pyrrolidine-1-carbonyl)-benzoyl)-N^3-(6-hydroxyhexyl)-N^4-((1S,2R)-2-phenyl-cyclopropyl)-pyrrolidine-3,4-dicarboxamide], the EC50 on TLR1/TLR2 [2] (Table 1) was 90 nM; at TLR1/TLR2 [1] (Table 1), 180 nM.

Take `O=C(O)CCCCCCCCCCCNC(=O)[C@@H]1CN(C(=O)c2ccc(C(=O)N3C[C@@H](C(=O)N[C@H]4C[C@@H]4c4ccccc4)[C@H](C(=O)N[C@H]4C[C@@H]4c4ccccc4)C3)cc2)C[C@H]1C(=O)N[C@H]1C[C@@H]1c1ccccc1` [Compound 11, 12-((3S,4S)-1-(4-((3S,4S)-3,4-Bis(((1S,2R)-2-phenyl-cyclopropyl)carbamoyl)pyrrolidine-1-carbonyl)benzoyl)-4-(((1S,2R)-2-phenylcyclopropyl)carbamoyl)pyrrolidine-3-carboxamido)-dodecanoic acid]: the results for the Emax on TLR1/TLR2 [2] and on TLR1/TLR2 [1] were 100% and 110%, respectively. In addition, the EC50 is 3.4 nM on TLR1/TLR2 [2] (Table 1) and 280 nM at TLR1/TLR2 [1] (Table 1).

As to `NC(=O)CCCCCCCCCCCNC(=O)[C@@H]1CN(C(=O)c2ccc(C(=O)N3C[C@@H](C(=O)N[C@H]4C[C@@H]4c4ccccc4)[C@H](C(=O)N[C@H]4C[C@@H]4c4ccccc4)C3)cc2)C[C@H]1C(=O)N[C@H]1C[C@@H]1c1ccccc1` [Compound 12, (3S,4S)—N^3-(12-Amino-12-oxododecyl)-1-(4-((3S,4S)-3,4-bis(((1S,2R)-2-phenylcyclopropyl)-carbamoyl)-pyrrolidine-1-carbonyl)benzoyl)-N^4-((1S,2R)-2-phenyl-cyclopropyl)pyrrolidine-3,4-dicarboxamide], the Emax is 110% on TLR1/TLR2 [2] and 120% on TLR1/TLR2 [1]. Moreover, the EC50 on TLR1/TLR2 [2] (Table 1) was 0.9 nM; at TLR1/TLR2 [1] (Table 1) it was 60 nM.

`CNC(=O)CCCCCCCCCCCNC(=O)[C@@H]1CN(C(=O)c2ccc(C(=O)N3C[C@@H](C(=O)N[C@H]4C[C@@H]4c4ccccc4)[C@H](C(=O)N[C@H]4C[C@@H]4c4ccccc4)C3)cc2)C[C@H]1C(=O)N[C@H]1C[C@@H]1c1ccccc1` [Compound 13, (3S,4S)-1-(4-((3S,4S)-3,4-Bis(((1S,2R)-2-phenylcyclo-propyl)carbamoyl)pyrrolidine-1-carbonyl)-benzoyl)-N^3-(12-(methylamino)-12-oxododecyl)-N^4-((1S,2R)-2-phenyl-cyclopropyl)pyrrolidine-3,4-dicarboxamide]: the Emax on TLR1/TLR2 [2] came out at 120%; at TLR1/TLR2 [1], 150%. Also, the EC50 at TLR1/TLR2 [2] (Table 1) stood at 1 nM; at TLR1/TLR2 [1] (Table 1), 60 nM.

Turning to `CC(C)(C)OC(=O)CNC(=O)CCCCCCCCCCCNC(=O)[C@@H]1CN(C(=O)c2ccc(C(=O)N3C[C@@H](C(=O)N[C@H]4C[C@@H]4c4ccccc4)[C@H](C(=O)N[C@H]4C[C@@H]4c4ccccc4)C3)cc2)C[C@H]1C(=O)N[C@H]1C[C@@H]1c1ccccc1` [Compound 14, tert-Butyl (12-((3S,4S)-1-(4-((3S,4S)-3,4-bis(((1S,2R)-2-phenylcyclopropyl)carbamoyl)-pyrrolidine-1-carbonyl)-benzoyl)-4-(((1S,2R)-2-phenylcyclopropyl)carbamoyl)pyrrolidine-3-carboxamido)dodecanoyl)glycinate], the values for the Emax on TLR1/TLR2 [2] and at TLR1/TLR2 [1] were 100% and 70%, respectively. The EC50 on TLR1/TLR2 [2] (Table 1) amounted to 20 nM; on TLR1/TLR2 [1] (Table 1) it was 25 nM.

Consider `O=C(O)CNC(=O)CCCCCCCCCCCNC(=O)[C@@H]1CN(C(=O)c2ccc(C(=O)N3C[C@@H](C(=O)N[C@H]4C[C@@H]4c4ccccc4)[C@H](C(=O)N[C@H]4C[C@@H]4c4ccccc4)C3)cc2)C[C@H]1C(=O)N[C@H]1C[C@@H]1c1ccccc1` [Compound 15, (12-((3S,4S)-1-(4-((3S,4S)-3,4-Bis(((1S,2R)-2-phenylcyclopropyl)carbamoyl)pyrrolidine-1-carbonyl)benzoyl)-4-(((1S,2R)-2-phenylcyclopropyl)carbamoyl)pyrrolidine-3-carboxamido)-dodecanoyl)glycine], for which the Emax at TLR1/TLR2 [2] was found to be 110%; at TLR1/TLR2 [1], 30%. The EC50 on TLR1/TLR2 [2] (Table 1) was 200 nM; on TLR1/TLR2 [1] (Table 1) it was 1200 nM.

Regarding `CC(C)(C)OC(=O)CCOCCOCCOCCNC(=O)[C@@H]1CN(C(=O)c2ccc(C(=O)N3C[C@@H](C(=O)N[C@H]4C[C@@H]4c4ccccc4)[C@H](C(=O)N[C@H]4C[C@@H]4c4ccccc4)C3)cc2)C[C@H]1C(=O)N[C@H]1C[C@@H]1c1ccccc1` [Compound 28, tert-Butyl 1-((3S,4S)-1-(4-((3S,4S)-3,4-bis(((1S,2R)-2-phenylcyclopropyl)carbamoyl)pyrrolidine-1-carbonyl)-benzoyl)-4-(((1S,2R)-2-phenylcyclopropyl)carbamoyl)-pyrrolidin-3-yl)-1-oxo-5,8,11-trioxa-2-azatetradecan-14-oate], on TLR1/TLR2 [2] (Table 2), the EC50 amounted to 3.1 nM.

With `COC(=O)CCOCCOCCOCCNC(=O)[C@@H]1CN(C(=O)c2ccc(C(=O)N3C[C@@H](C(=O)N[C@H]4C[C@@H]4c4ccccc4)[C@H](C(=O)N[C@H]4C[C@@H]4c4ccccc4)C3)cc2)C[C@H]1C(=O)N[C@H]1C[C@@H]1c1ccccc1` [Compound 29, Methyl 1-((3S,4S)-1-(4-((3S,4S)-3,4-bis(((1S,2R)-2-phenylcyclopropyl)carbamoyl)pyrrolidine-1-carbonyl)benzoyl)-4-(((1S,2R)-2-phenylcyclopropyl)carbamoyl)-pyrrolidin-3-yl)-1-oxo-5,8,11-trioxa-2-azatetradecan-14-oate], on TLR1/TLR2 [2], the Emax was 110%. Moreover, the EC50 on TLR1/TLR2 [2] (Table 2) was 40 nM.
